For one assay, the system named is MV-3 cells. Briefly: T-cell - TCB - MV3 killing assay. Format: cell-based. The settings on record: Homo sapiens, 120 h, T-cells + MCSP-TCB on MV-3 RFP cells, 5 d; for Emax: 20 μM reference compound A1 = 100%, read-out: MSCP TCB killing MV-3 cells 5 d Emax; for EC50: read-out: MSCP TCB killing MV-3 cells 5 d EC50. How it is done: All culturing steps are executed at 5% CO2, 37° C. and 95% humidity.
MV-3 RFP cells are cultured in MV-3 medium (DMEM+10% FBS, 1× PenStrep and 0.5 μg/mL Puromycin) for at least 3 weeks. Cultured MV-3 cells at 80% confluency are washed once with PBS−− and trypsinized until detached. […] Cells are seeded with 100 μL/well into a 96-well plate (TTP, #92696), and placed for 40 minutes without moving at room temperature in order to achieve evenly distributed attachment of cells. Plates are then incubated until further use.
On the next day, expanded primary human T-cells are thawed and resuspended in T-cell medium to 4*10^6 cells/mL. For 3 hours, they are cultured in a 6-well plate with 6 mL per well at maximum. After culturing the T-cells, they are filtered through a cell strainer (Miltenyi Biotech, #130-041-407), counted again, and cell concentration is adjusted to 2*10^6 cells/mL.
MCSP-TCB or PBS are pre-diluted in T-cell medium (concentration depending on T-cell donor), 4 times more concentrated than the end-concentration. 60 μL/well of pre-dilutions are then distributed into a round bottom plate (Costar, #3799) according to plate layout. Compounds are added in a 9 pt dose response with the Tecan D300e Digital Dispenser, as well 4 times more concentrated than the end-concentration. DMSO concentration of all wells is adjusted to 0.8%, resulting in 0.2% as final concentration.
60 μL per well of T-cell suspension are added to the prepared round bottom plate and resuspended with a manual multichannel. 100 μL/well of the resuspended T-cell suspension including treatments are then transferred cautiously to the over-night cultured MV-3 cells according to plate layout. 100 μL T-cell medium only is added to the outer MV-3 wells only. Final compound DR is starting at 20 μM with a dilution factor of 3.333. Final TCB concentration is between […] and was determined for each T-cell donor individually by running TCB titrations. For each donor, a TCB concentration was chosen which corresponds to 10-20% of MV3 baseline cell killing in the absence of compound treatment. Positive control is the reference compound A1 which is added in a DR, as well as additional wells with only 20 μM. 20 μM of reference compound A1 represent the positive stimulator control, TCB only (DMSO wells) the neutral control.
After transfer of T-cells with treatment pre-dilutions, MV-3 cells are imaged by time-lapse microscopy using IncucyteZOOM™ (Essen BioScience, MI, USA). Imaging is performed every 3 hours for a total of 120 hours (1OX objective, phase and red image channels, acquisition time 400 ms, Green/Red 4614 optical module). RFP object count per well is analysed in the IncucyteZOOM™ Software (Version 2019B Rev2) with a mask that was previously created and optimized for MV-3 cells. Raw data is exported as object count/well and values are normalized as % TCL compared to wells with MV-3 only, representing 100% growth and therefore 0% TCL.
Calculated % TCL values are analysed in Genedata Screener using Roche Normalization PCT_POS_CTRL with MCSP-TCB only set as Neutral Control and 20 μM of the reference compound A1 set as Stimulator Control/100%.
Induced TCL by compounds without TCB treatment or toxicity (observed in the PBS condition) were be flagged.

For the next assay, the target named is DGKalpha (Homo sapiens, UniProt P23743). Kind of assay: In vitro DGK inhibition assay (ADP Glo) run by Reaction Biology Corp., DGKalpha. In kind it is biochemical. The conditions noted are these: 2 nM kinase, 500 uM DLG, 10-dose duplicate. Also noted: purchased Reaction Biology Corp. (assay service). How it is done: (§1) DGK α and ζ kinases use ATP to phosphorylate the substrate 1,2-dilauroyl-sn-glycerol (DLG). ATP is converted to ADP as a result of this enzymatic reaction.
DGKalpha, sequence (P23743 whole entry, species assumed): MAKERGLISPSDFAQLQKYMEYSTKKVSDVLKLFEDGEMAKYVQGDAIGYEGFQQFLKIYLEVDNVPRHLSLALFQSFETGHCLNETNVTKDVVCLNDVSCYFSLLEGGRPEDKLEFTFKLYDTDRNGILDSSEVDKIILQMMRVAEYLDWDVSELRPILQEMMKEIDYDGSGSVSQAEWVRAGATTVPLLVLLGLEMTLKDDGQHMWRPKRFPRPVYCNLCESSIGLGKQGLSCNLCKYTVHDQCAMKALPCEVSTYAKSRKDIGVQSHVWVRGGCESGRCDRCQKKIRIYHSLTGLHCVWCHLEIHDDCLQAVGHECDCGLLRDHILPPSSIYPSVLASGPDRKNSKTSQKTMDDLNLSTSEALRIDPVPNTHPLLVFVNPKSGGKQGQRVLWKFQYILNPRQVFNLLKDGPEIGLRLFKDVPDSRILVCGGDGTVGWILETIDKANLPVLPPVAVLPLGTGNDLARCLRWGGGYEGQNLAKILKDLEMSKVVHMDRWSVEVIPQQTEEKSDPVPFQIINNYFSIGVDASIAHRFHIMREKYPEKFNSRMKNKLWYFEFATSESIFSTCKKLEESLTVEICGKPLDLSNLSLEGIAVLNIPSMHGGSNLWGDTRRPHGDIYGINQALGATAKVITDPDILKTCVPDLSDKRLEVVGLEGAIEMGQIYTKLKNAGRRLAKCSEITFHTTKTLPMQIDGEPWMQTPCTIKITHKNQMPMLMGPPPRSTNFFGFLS
(§2) After the kinase reaction, an ATP-depletion reagent is added to terminate the kinase reaction and deplete any remaining ATP, leaving only ADP. Second, a detection reagent is added to simultaneously convert ADP to ATP and allow the newly synthesized ATP to be converted to light using a coupled
(§3) luciferase/luciferin reaction.
(§4) DGK α and ζ kinase ADP Glo assays were ran by Reaction Biology Corp., 1 Great Valley Parkway, Suite 2, Malvern, 19355, PA, USA. Information provided by the service provider are the following: DGK α and ζ kinases were used at 2 nM final concentration. Reactions were carried out at 50 µM ATP. 500 uM of the substrate DLG (Dilauroyl-sn-glycerol) was used.

The target of the next assay is DGKzeta (Homo sapiens, UniProt Q13574). Kind of assay: In vitro DGK inhibition assay (ADP Glo) run by Reaction Biology Corp., DGKzeta. In kind it is biochemical. The settings on record: 2 nM kinase, 500 uM DLG, 10-dose duplicate. Also on record: purchased Reaction Biology Corp. (assay service). How it is done:
as §1, §2, §3, §4

DGKzeta, sequence (Q13574 whole entry, species assumed): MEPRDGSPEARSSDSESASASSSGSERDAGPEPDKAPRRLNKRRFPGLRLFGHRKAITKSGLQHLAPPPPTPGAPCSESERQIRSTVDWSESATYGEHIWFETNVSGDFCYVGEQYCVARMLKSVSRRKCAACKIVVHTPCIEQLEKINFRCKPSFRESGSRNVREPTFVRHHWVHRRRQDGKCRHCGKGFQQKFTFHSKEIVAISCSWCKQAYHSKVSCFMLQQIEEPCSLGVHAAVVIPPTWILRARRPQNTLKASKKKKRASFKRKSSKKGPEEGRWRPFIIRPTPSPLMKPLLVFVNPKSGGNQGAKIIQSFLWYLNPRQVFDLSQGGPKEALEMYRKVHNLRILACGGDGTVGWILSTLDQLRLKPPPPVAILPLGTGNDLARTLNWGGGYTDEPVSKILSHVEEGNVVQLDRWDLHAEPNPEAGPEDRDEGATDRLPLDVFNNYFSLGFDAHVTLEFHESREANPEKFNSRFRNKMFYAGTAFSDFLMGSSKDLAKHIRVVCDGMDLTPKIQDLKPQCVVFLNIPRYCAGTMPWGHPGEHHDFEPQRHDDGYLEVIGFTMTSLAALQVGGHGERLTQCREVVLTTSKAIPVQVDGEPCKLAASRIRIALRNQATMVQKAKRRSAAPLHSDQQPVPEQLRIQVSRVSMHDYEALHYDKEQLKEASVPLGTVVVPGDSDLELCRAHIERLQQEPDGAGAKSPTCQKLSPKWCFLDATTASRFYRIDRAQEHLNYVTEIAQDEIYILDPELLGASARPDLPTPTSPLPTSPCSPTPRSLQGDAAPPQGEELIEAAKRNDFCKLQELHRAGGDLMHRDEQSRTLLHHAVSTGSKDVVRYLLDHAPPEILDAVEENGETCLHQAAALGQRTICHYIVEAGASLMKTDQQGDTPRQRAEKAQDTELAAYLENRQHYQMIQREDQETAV

On to `CC(C)(c1nc(-c2cc3c(cc2F)S(=O)(=O)C[C@H](N)C(=O)N3Cc2ccc(Oc3ccccc3)cc2)no1)S(C)(=O)=O` [Example 30, (3R)-3-amino-8-fluoro-7-[5-(1-methyl-1-methylsulfonyl-ethyl)-1,2,4-oxadiazol-3-yl]-1,1-dioxo-5-[(4-phenoxyphenyl)methyl]-2,3-dihydro-1λ6,5-benzothiazepin-4-one], for which, in the assay on MV-3 cells, the Emax was determined as 100% and the concentration for a half-maximal effect (EC50) turned out to be 41 nM. Moreover, the IC50 on DGKalpha came out at 7.8 nM. Moreover, it took 5.5 nM to reach half-maximal inhibition on DGKzeta (IC50).

As to `CC(C)(c1nnc(-c2ccc3c(c2)N(Cc2ccc(Oc4cccc(F)c4)cc2)C(=O)[C@@H](N)CS3(=O)=O)o1)S(C)(=O)=O` [Example 33, (3R)-3-amino-5-[[4-(3-fluorophenoxy)phenyl]methyl]-7-[5-(1-methyl-1-methylsulfonyl-ethyl)-1,3,4-oxadiazol-2-yl]-1,1-dioxo-2,3-dihydro-1λ6,5-benzothiazepin-4-one], in the assay with MV-3 cells, the Emax was 117% and the EC50 amounted to 465 nM.

Regarding `CC(C)(c1nnc(-c2cc3c(cc2F)S(=O)(=O)C[C@H](N)C(=O)N3Cc2ccc(-c3ccc(C(F)(F)F)cc3)cc2)o1)S(C)(=O)=O` [Example 35, (3R)-3-amino-8-fluoro-7-[5-(1-methyl-1-methylsulfonyl-ethyl)-1,3,4-oxadiazol-2-yl]-1,1-dioxo-5-[[4-[4-(trifluoromethyl)phenyl]phenyl]methyl]-2,3-dihydro-1λ6,5-benzothiazepin-4-one], the IC50 was 7.1 nM at DGKalpha and 6.6 nM at DGKzeta.

`CC(C)(c1nc(-c2cc3c(cc2F)S(=O)(=O)C[C@H](N)C(=O)N3Cc2ccc(OC(F)(F)F)cc2)no1)S(C)(=O)=O` [Example 44, (3R)-3-amino-8-fluoro-7-[5-(1-methyl-1-methylsulfonyl-ethyl)-1,2,4-oxadiazol-3-yl]-1,1-dioxo-5-[[4-(trifluoromethoxy)phenyl]methyl]-2,3-dihydro-1λ6,5-benzothiazepin-4-one]: in the assay on MV-3 cells, the Emax is 131% and the EC50 stood at 65 nM.

As for `CC(C)(c1nnc(-c2ccc3c(c2)N(Cc2ccc(-c4ccc(C(F)(F)F)cc4)nc2)C(=O)[C@@H](N)CS3(=O)=O)o1)S(C)(=O)=O` [Example 57, (3R)-3-amino-7-[5-(1-methyl-1-methylsulfonyl-ethyl)-1,3,4-oxadiazol-2-yl]-1,1-dioxo-5-[[6-[4-(trifluoromethyl)phenyl]-3-pyridyl]methyl]-2,3-dihydro-1λ6,5-benzothiazepin-4-one], in the assay on MV-3 cells, the Emax was found to be 104% and the EC50 was 1850 nM.

For `CC(C)(c1nc(-c2cc3c(cc2F)S(=O)(=O)C[C@H](N)C(=O)N3Cc2ccc(-c3noc(C(F)(F)F)n3)cc2)no1)S(C)(=O)=O` [Example 46, (3R)-3-amino-8-fluoro-7-[5-(1-methyl-1-methylsulfonyl-ethyl)-1,2,4-oxadiazol-3-yl]-1,1-dioxo-5-[[4-[5-(trifluoromethyl)-1,2,4-oxadiazol-3-yl]phenyl]methyl]-2,3-dihydro-1λ6,5-benzothiazepin-4-one], in the assay on MV-3 cells, the Emax worked out at 65% and the EC50 came to 25 nM.

For `CC(C)(c1nnc(-c2ccc3c(c2)N(Cc2ccc(Oc4cccc(Cl)c4)cc2)C(=O)[C@@H](N)CS3(=O)=O)o1)S(C)(=O)=O` [Example 34, (3R)-3-amino-5-[[4-(3-chlorophenoxy)phenyl]methyl]-7-[5-(1-methyl-1-methylsulfonyl-ethyl)-1,3,4-oxadiazol-2-yl]-1,1-dioxo-2,3-dihydro-1λ6,5-benzothiazepin-4-one], in the assay on MV-3 cells, the maximum response (Emax) was 95% and the half-maximal effective concentration (EC50) turned out to be 392 nM.

Regarding `CC(C)(c1nnc(-c2ccc3c(c2)N(Cc2ccc(Oc4cccc(C(F)(F)F)c4)cc2)C(=O)[C@@H](N)CS3(=O)=O)o1)S(C)(=O)=O` [Example 38], in the assay with MV-3 cells, the maximal effect (Emax) is 102% and the concentration giving a half-maximal response (EC50) amounted to 112 nM.

With `CC(C)(c1nnc(-c2ccc3c(c2)N(Cc2ccc(Oc4ccccc4)cc2)C(=O)[C@@H](N)CS3(=O)=O)o1)S(C)(=O)=O` [Example 5, (3R)-3-amino-7-[5-(1-methyl-1-methylsulfonyl-ethyl)-1,3,4-oxadiazol-2-yl]-1,1-dioxo-5-[(4-phenoxyphenyl)methyl]-2,3-dihydro-1λ6,5-benzothiazepin-4-one], in the assay with MV-3 cells, the maximal response (Emax) was found to be 154% and the EC50 came to 982 nM.

`CC(C)(c1nc(-c2cc3c(cc2F)S(=O)(=O)C[C@H](N)C(=O)N3Cc2ccc(-c3noc(C4CC4)n3)cc2)no1)S(C)(=O)=O` [Example 45, (3R)-3-amino-5-[[4-(5-cyclopropyl-1,2,4-oxadiazol-3-yl)phenyl]methyl]-8-fluoro-7-[5-(1-methyl-1-methylsulfonyl-ethyl)-1,2,4-oxadiazol-3-yl]-1,1-dioxo-2,3-dihydro-1λ6,5-benzothiazepin-4-one]: in the assay with MV-3 cells, the Emax is 67% and the concentration for a half-maximal effect (EC50) was 35 nM.

On to `CC(C)(c1nnc(-c2ccc3c(c2)N(Cc2ccc(-c4ccc(C(F)(F)F)cc4)cc2)C(=O)[C@@H](N)CS3(=O)=O)o1)S(C)(=O)=O` [Example 56, (3R)-3-amino-7-[5-(1-methyl-1-methylsulfonyl-ethyl)-1,3,4-oxadiazol-2-yl]-1,1-dioxo-5-[[4-[4-(trifluoromethyl)phenyl]phenyl]methyl]-2,3-dihydro-1λ6,5-benzothiazepin-4-one], for which, in the assay with MV-3 cells, the maximal response (Emax) was found to be 100% and the 50% effective concentration (EC50) is 105 nM. On DGKalpha, this compound yielded a half-maximal inhibitory concentration (IC50) of 67.7 nM. On DGKzeta, this compound came in with a half-inhibitory concentration (IC50) of 142 nM.

One may read the Emax as the size of the effect at its maximum, as opposed to the concentration needed. In general, EC50 refers to the midpoint of the concentration-response curve. For orientation: IC50 means the point on the concentration scale where inhibition reaches its midpoint. A high value points to lower potency.

(Values after patent publication US20260035364A1, “BICYCLIC TETRAHYDROTHIAZEPINE DERIVATIVES” (Hoffmann-La Roche Inc., priority 2022, published 2026).)
